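Interpolation was linear, between the two tested concentrations surrounding the appropriate level; five concentrations were tested over 48 hours in 96-well plates. At the TGI there is no net growth.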
Legend:
Experiment in all cases: NCI tumour cell line growth inhibition, 48 h
786-0 renal = test system: 786-0 renal
A498 renal = test system: A498 renal
A549 NSCLC = test system: A549 NSCLC
ACHN renal = test system: ACHN renal
BT-549 breast = test system: BT-549 breast
CCRF-CEM leukemia = test system: CCRF-CEM leukemia
DU-145 prostate = test system: DU-145 prostate
EKVX NSCLC = test system: EKVX NSCLC
HCC-2998 colon = test system: HCC-2998 colon
HCT-116 colon = test system: HCT-116 colon
HCT-15 colon = test system: HCT-15 colon
HL-60(TB) leukemia = test system: HL-60(TB) leukemia
HOP-62 NSCLC = test system: HOP-62 NSCLC
HOP-92 NSCLC = test system: HOP-92 NSCLC
HS 578T breast = test system: HS 578T breast
HT29 colon = test system: HT29 colon
IGROV1 ovarian = test system: IGROV1 ovarian
K-562 leukemia = test system: K-562 leukemia
KM12 colon = test system: KM12 colon
M14 melanoma = test system: M14 melanoma
MALME-3M melanoma = test system: MALME-3M melanoma
MCF7 breast = test system: MCF7 breast
MDA-MB-231 breast = test system: MDA-MB-231 breast
MDA-MB-435 = test system: MDA-MB-435
MDA-N = test system: MDA-N
MOLT-4 leukemia = test system: MOLT-4 leukemia
NCI-H226 lung = test system: NCI-H226 lung
NCI-H23 lung = test system: NCI-H23 lung
NCI-H460 lung = test system: NCI-H460 lung
NCI/ADR-RES ovarian = test system: NCI/ADR-RES ovarian
OVCAR-3 ovarian = test system: OVCAR-3 ovarian
OVCAR-5 ovarian = test system: OVCAR-5 ovarian
OVCAR-8 ovarian = test system: OVCAR-8 ovarian
PC-3 prostate = test system: PC-3 prostate
RXF 393 renal = test system: RXF 393 renal
SF-268 CNS = test system: SF-268 CNS
SF-295 CNS = test system: SF-295 CNS
SF-539 CNS = test system: SF-539 CNS
SK-MEL-2 melanoma = test system: SK-MEL-2 melanoma
SK-MEL-28 melanoma = test system: SK-MEL-28 melanoma
SK-MEL-5 melanoma = test system: SK-MEL-5 melanoma
SK-OV-3 ovarian = test system: SK-OV-3 ovarian
SN12C renal = test system: SN12C renal
SNB-19 CNS = test system: SNB-19 CNS
SR leukemia = test system: SR leukemia
SW-620 colon = test system: SW-620 colon
T-47D breast = test system: T-47D breast
TK-10 renal = test system: TK-10 renal
U251 CNS = test system: U251 CNS
UACC-62 melanoma = test system: UACC-62 melanoma
UO-31 renal = test system: UO-31 renal
CAKI-1 renal = test system: CAKI-1 renal
COLO 205 colon = test system: COLO 205 colon
LOX IMVI melanoma = test system: LOX IMVI melanoma
NCI-H522 lung = test system: NCI-H522 lung
OVCAR-4 ovarian = test system: OVCAR-4 ovarian
RPMI-8226 leukemia = test system: RPMI-8226 leukemia
SNB-75 CNS = test system: SNB-75 CNS
UACC-257 melanoma = test system: UACC-257 melanoma

Compound: O=C(c1ccccc1)N1CCC(Nc2cccnc2)O1 (stereo not drawn)
- TGI (786-0 renal): > 100 µM
- TGI (A498 renal): > 100 µM
- TGI (A549 NSCLC): > 100 µM
- TGI (ACHN renal): > 100 µM
- TGI (BT-549 breast): > 100 µM
- TGI (CCRF-CEM leukemia): > 100 µM
- TGI (DU-145 prostate): > 100 µM
- TGI (EKVX NSCLC): > 100 µM
- TGI (HCC-2998 colon): > 100 µM
- TGI (HCT-116 colon): > 100 µM
- TGI (HCT-15 colon): > 100 µM
- TGI (HL-60(TB) leukemia): > 100 µM
- TGI (HOP-62 NSCLC): > 100 µM
- TGI (HOP-92 NSCLC): > 100 µM
- TGI (HS 578T breast): > 100 µM
- TGI (HT29 colon): > 100 µM
- TGI (IGROV1 ovarian): > 100 µM
- TGI (K-562 leukemia): > 100 µM
- TGI (KM12 colon): > 100 µM
- TGI (M14 melanoma): > 100 µM
- TGI (MALME-3M melanoma): > 100 µM
- TGI (MCF7 breast): > 100 µM
- TGI (MDA-MB-231 breast): > 100 µM
- TGI (MDA-MB-435): > 100 µM
- TGI (MDA-N): > 100 µM
- TGI (MOLT-4 leukemia): > 100 µM
- TGI (NCI-H226 lung): > 100 µM
- TGI (NCI-H23 lung): > 100 µM
- TGI (NCI-H460 lung): > 100 µM
- TGI (NCI/ADR-RES ovarian): > 100 µM
- TGI (OVCAR-3 ovarian): > 100 µM
- TGI (OVCAR-5 ovarian): > 100 µM
- TGI (OVCAR-8 ovarian): > 100 µM
- TGI (PC-3 prostate): > 100 µM
- TGI (RXF 393 renal): > 100 µM
- TGI (SF-268 CNS): > 100 µM
- TGI (SF-295 CNS): > 100 µM
- TGI (SF-539 CNS): > 100 µM
- TGI (SK-MEL-2 melanoma): > 100 µM
- TGI (SK-MEL-28 melanoma): > 100 µM
- TGI (SK-MEL-5 melanoma): > 100 µM
- TGI (SK-OV-3 ovarian): > 100 µM
- TGI (SN12C renal): > 100 µM
- TGI (SNB-19 CNS): > 100 µM
- TGI (SR leukemia): > 100 µM
- TGI (SW-620 colon): > 100 µM
- TGI (T-47D breast): > 100 µM
- TGI (TK-10 renal): > 100 µM
- TGI (U251 CNS): > 100 µM
- TGI (UACC-62 melanoma): > 100 µM
- TGI (UO-31 renal): > 100 µM

Compound: CCC1=C(CC2NCCc3cc(OC)c(OC)cc32)CC2c3ccccc3CCN2C1 (stereo not drawn)
- TGI (786-0 renal): 35.6 µM
- TGI (A498 renal): 28.5 µM
- TGI (A549 NSCLC): > 100 µM
- TGI (ACHN renal): > 100 µM
- TGI (BT-549 breast): > 100 µM
- TGI (CAKI-1 renal): > 100 µM
- TGI (CCRF-CEM leukemia): 33.6 µM
- TGI (COLO 205 colon): 21.8 µM
- TGI (DU-145 prostate): > 100 µM
- TGI (EKVX NSCLC): > 100 µM
- TGI (HCT-116 colon): > 100 µM
- TGI (HCT-15 colon): > 100 µM
- TGI (HL-60(TB) leukemia): 46.5 µM
- TGI (HOP-62 NSCLC): > 100 µM
- TGI (HOP-92 NSCLC): 42.6 µM
- TGI (HS 578T breast): 49.7 µM
- TGI (HT29 colon): 20.6 µM
- TGI (IGROV1 ovarian): > 100 µM
- TGI (K-562 leukemia): 22 µM
- TGI (KM12 colon): > 100 µM
- TGI (LOX IMVI melanoma): 26.3 µM
- TGI (M14 melanoma): 27.3 µM
- TGI (MALME-3M melanoma): 27.7 µM
- TGI (MCF7 breast): 42.7 µM
- TGI (MDA-MB-231 breast): 74.4 µM
- TGI (MDA-MB-435): 25.8 µM
- TGI (MDA-N): 27 µM
- TGI (MOLT-4 leukemia): 43.9 µM
- TGI (NCI-H226 lung): 73.6 µM
- TGI (NCI-H460 lung): 25.1 µM
- TGI (NCI-H522 lung): 29.1 µM
- TGI (NCI/ADR-RES ovarian): > 100 µM
- TGI (OVCAR-3 ovarian): > 100 µM
- TGI (OVCAR-4 ovarian): > 100 µM
- TGI (OVCAR-5 ovarian): > 100 µM
- TGI (OVCAR-8 ovarian): > 100 µM
- TGI (PC-3 prostate): 78.3 µM
- TGI (RPMI-8226 leukemia): 30.4 µM
- TGI (RXF 393 renal): > 100 µM
- TGI (SF-268 CNS): > 100 µM
- TGI (SF-295 CNS): 76.3 µM
- TGI (SF-539 CNS): 21.4 µM
- TGI (SK-MEL-2 melanoma): 29.2 µM
- TGI (SK-MEL-28 melanoma): 29 µM
- TGI (SK-MEL-5 melanoma): 28 µM
- TGI (SK-OV-3 ovarian): > 100 µM
- TGI (SN12C renal): > 100 µM
- TGI (SNB-19 CNS): > 100 µM
- TGI (SNB-75 CNS): 87.9 µM
- TGI (SR leukemia): 24.1 µM
- TGI (SW-620 colon): 37.3 µM
- TGI (T-47D breast): 54.5 µM
- TGI (TK-10 renal): > 100 µM
- TGI (U251 CNS): 27.6 µM
- TGI (UACC-257 melanoma): 32 µM
- TGI (UACC-62 melanoma): 28.8 µM
- TGI (UO-31 renal): 36.3 µM

— PubChem BioAssay (NCI)
